The source of these data is patent US20250051282A1, “COMPOUNDS FOR TREATING POLYQ-RELATED NEURODEGENERATIVE DISORDERS” (HANGZHOU JIJING PHARMACEUTICAL TECHNOLOGY LIMITED, priority 2021, published 2025).

A value given as a limit tells only on which side of the number the result lay.

The subject of the assay is ATXN1(60Q). The assay can be described thus: Daoy-ATXN1(60Q)-mATXN1 MSD assay (CTG normalized). The format is cell-based. As to conditions: Daoy-Flag-ATXN1(60Q) stable cells, compound added Day 2, lysis Day 3, final DMSO 0.3%, read-out: Daoy-ATXN1(60Q)-mATXN1 MSD (CTG normalized) DC50. Here is the method: Protocol for MSD Assay: Daoy-ATXN1(600)-mATXN1 MSD (CTG normalized)
The Flag-ATXN1(60Q) gene is synthesized by Genescript and cloned into the pLVX-IRES-Puro vector (Takarabio, catalog No. 632183) using EcoRI/BamHI restriction enzyme sites. Lentivirus is made by transfecting HEK293T cells with pLVX-IRES-Puro-Flag-ATXN1(60Q) plasmids and packaging plasmids psPAX2 and pMD2.G at 4:3:1 ratio (8:6:[…], respectively) in 10 cm plates, and are harvested at 48 hours post transfection. Daoy cells (ATCC catalog No. HTB-186) seeded in T25 flasks are infected with the lentivirus in the presence of 8 µg/mL polybrene (Sigma, TR-1003-G) for 24 hours. 48 hours post infection, the cells are selected using 0.5 […] (Sigma, P8833) for more than 5 days until all cells in the uninfected group die. The expression of Flag-ATXN1(60Q) is verified by anti-Flag immunoblot using anti-Flag antibody (Sigma, F1804-200UG, M2).
As explained above, Daoy-Flag-ATXN1(60Q) cells are prepared as a stable cell line by infecting Daoy cells with lentivirus. The media for the cells is EMEM (ATTC, 30-2008) with 10% fetal bovin serum (FBS).
On Day 1, the Daoy-Flag-ATXN1(60Q) cells are seeded in a 96 well plate at a concentration of 1.2×10^4/well. On Day 2, the cells are treated with test compounds at test concentrations (compounds are serially diluted with DMSO to obtain test concentrations, such that final DMSO concentration is 0.3%). On Day 3, the cells are washed with 100 μL of phosphate-buffered saline (PBS) per well, and then 30 μL of radioimmuno-precipitation assay (RIPA) buffer (with protease and phosphatase inhibitor cocktail) is added to each well.
The well plate is then cooled on ice for 30 minutes in order to complete lysis, and MSD samples are prepared using 10 μL of Daoy-Flag-ATXN1-60Q lysate and 90 μL of RIPA buffer with gentle mixing. Each MSD sample has a total volume of 100 μL, and is used immediately or stored at −80° C.
A standard Meso Scale Discovery (MSD) plate is coated with anti-Flag (Sigma, F1804-200UG, M2) in PBS at 1:500 dilution ratio and 40 µL/well, and is incubated at 4° C. overnight with shaking at 600 rpm. Then, the MSD plate is washed 3 times with 150 µL/well of 1X TBST (tris-buffered saline (TBS) with Tween 20) buffer, and the MSD plate is blocked with 150 μL of blocking buffer [3% Blocker A in 1X TBST, (3 g Blocker A per 100 mL 1X TBST)] and shaken for 1 hour at 600 rpm at room temperature. Then, the MSD plate is washed three times with 150 μL/well of 1X TBST. Next, the diluted lysate samples (from Sample Preparation above) are added to the MSD plate at 25 μL/well, and the MSD plate is shaken at 600 rpm for 1 hour at room temperature. Then the MSD plate is washed 3 times with 150 μL/well of 1X TBST.
Detection antibody anti-Ataxin 1 (G-bio, ITA1916) (1:500), which is prepared in antibody detection buffer (1% Blocker A in 1X TBST), is then added to the MSD plate at 25 µL/well, and the MSD plate is shaken at 600 rpm for 1 hour at room temperature. The MSD plate is then washed three times with 150 μL/well of 1X TBST. Next, a secondary detection antibody, Goat anti-rabit (GAR) with SULFO-TAG (1:500), which is prepared in antibody detection buffer (1% Blocker A in 1X TBST), is added at 25 μL/well and the MSD plate is shaken at 600 rpm for 1 hour at room temperature. Then the MSD plate is washed 3 times with 150 μL/well of 1X TBST, and 2X MSD reading buffer is added at 150 μL/well (diluted from 4x MSD reading buffer with water). Finally, the signal from each well is measured on the MSD Meso QuickPle SQ120 Plate Reader. DC50 data is calculated using collaborate drug discovery (CDD) software (https://www.collaborativedrug.com/about).
Turning to `O=C1Nc2ccc(Br)cc2/C1=C(/Nc1cccnn1)c1ccccc1` [Example 44, (Z)-5-bromo-3-(phenyl(pyridazin-3-ylamino)methylene) indolin-2-one], the DC50 is more than 30 µM.

For the compound `O=C1Nc2ccc(Br)cc2/C1=C(/Nc1cncnc1)c1ccccc1` [Example 45, (Z)-5-bromo-3-(phenyl(pyrimidin-5-ylamino)methylene) indolin-2-one], the DC50 is less than 10 µM.

Turning to `O=C1Nc2ccc(Br)cc2/C1=C(/Nc1cnccn1)c1ccccc1` [Example 46, (Z)-5-bromo-3-(phenyl(pyrazin-2-ylamino)methylene) indolin-2-one], the DC50 is more than 30 µM.

For the compound `O=C1Nc2ccc(Br)cc2/C1=C(/Nc1cnnc(Cl)c1)c1ccccc1` [Example 47, (Z)-5-bromo-3-((6-chloropyridazin-4-ylamino)(phenyl)methylene)indolin-2-one], the DC50 was more than 30 µM.

Consider `N#Cc1n[nH]cc1N/C(=C1\C(=O)Nc2ccc(Br)cc21)c1ccccc1` [Example 48, (Z)-4-(((5-bromo-2-oxoindolin-3-ylidene)(phenyl)methyl)amino)-1H-pyrazole-3-carbonitrile], for which the DC50 was more than 30 µM.

With `O=C1Nc2ccc(Br)cc2/C1=C(/Nc1cncs1)c1ccccc1` [Example 49, (Z)-5-bromo-3-(phenyl(thiazol-5-ylamino)methylene)indolin-2-one], the DC50 is more than 30 µM.

Turning to `Cn1cc(N/C(=C2\C(=O)Nc3ccc(Br)cc32)c2ccccc2)c(C(F)(F)F)n1` [Example 51, (Z)-5-bromo-3-(((1-methyl-3-(trifluoromethyl)-1H-pyrazol-4-yl)amino)(phenyl)methylene)indolin-2-one], the DC50 was more than 30 µM.

On to `O=C1Nc2ccc(Br)cc2/C1=C(/Nc1cnn(CCO)c1)c1ccccc1` [Example 53, (Z)-5-bromo-3-(((1-(2-hydroxyethyl)-1H-pyrazol-4-yl)amino)(phenyl)methylene)indolin-2-one], for which the DC50 was 10 to 30 µM.

`O=C1Nc2ccc(Br)cc2/C1=C(/Nc1c[nH]nc1Cl)c1ccccc1` [Example 54, (Z)-5-bromo-3-((3-chloro-1H-pyrazol-4-ylamino)(phenyl)methylene)indolin-2-one]: the DC50 was more than 30 µM.

Consider `O=C1Nc2ccc(Br)cc2/C1=C(/Nc1cnn(C(F)F)c1)c1ccccc1` [Example 55, (Z)-5-bromo-3-(((1-(difluoromethyl)-1H-pyrazol-4-yl)amino)(phenyl)methylene)indolin-2-one], for which the DC50 was more than 30 µM.

`NCCN/C(=C1\C(=O)Nc2ccc(Br)cc21)c1ccc2[nH]c(=O)oc2c1` [Example 57, (Z)-6-(((2-aminoethyl)amino)(5-bromo-2-oxoindolin-3-ylidene)methyl) benzo[d]oxazol-2(3H)-one]: the DC50 is 10 to 30 µM.

`Nc1cccc(/C(NCCCF)=C2/C(=O)Nc3ccc(Br)cc32)c1` [Example 58, (Z)-3-((3-aminophenyl)((3-fluoropropyl)amino)methylene)-5-bromoindolin-2-one]: the DC50 was less than 10 µM.

Consider `Nc1cccc(/C(Nc2cn[nH]c2)=C2/C(=O)Nc3ccc(Br)cc32)c1` [Example 59, (Z)-3-(((1H-pyrazol-4-yl)amino)(3-aminophenyl)methylene)-5-bromoindolin-2-one], for which the DC50 was less than 10 µM.

In the case of `Nc1cccc(/C(Nc2ccnnc2)=C2/C(=O)Nc3ccc(Br)cc32)c1` [Example 60, (Z)-3-((3-aminophenyl) (pyridazin-4-ylamino)methylene)-5-bromo indolin-2-one], the DC50 is less than 10 µM.

With `CC(=O)NCCOCCOCCOCCN/C(=C1\C(=O)Nc2ccc(Br)cc21)c1cccc(O)c1` [Example 61, (Z)—N-(1-(5-bromo-2-oxoindolin-3-ylidene)-1-(3-hydroxyphenyl)-5,8,11-trioxa-2-azatridecan-13-yl)acetamide], the DC50 was 10 to 30 µM.

Regarding `COc1cc(/C(Nc2ccnnc2)=C2/C(=O)Nc3ccc(Br)cc32)ccc1N` [Example 62, (Z)-3-((4-amino-3-methoxyphenyl)(pyridazin-4-ylamino)methylene)-5-bromoindolin-2-one], the DC50 is more than 30 µM.

For `Nc1ccc(/C(Nc2ccnnc2)=C2/C(=O)Nc3ccc(Br)cc32)cc1O` [Example 63, (Z)-3-((4-amino-3-hydroxyphenyl)(pyridazin-4-ylamino)methylene)-5-bromoindolin-2-one], the DC50 was less than 10 µM.

Turning to `O=C1Nc2ccc(Br)cc2/C1=C(/Nc1ccnnc1)c1ccc2[nH]c(=O)oc2c1` [Example 64, (Z)-6-((5-bromo-2-oxoindolin-3-ylidene)(pyridazin-4-ylamino)methyl) benzo[d]oxazol-2(3H)-one], the DC50 was less than 10 µM.

In the case of `O=C1Nc2ccc(Br)cc2/C1=C(/Nc1cccnc1)c1cccc(O)c1` [Example 66, (Z)-5-bromo-3-((3-hydroxyphenyl) (pyridin-3-ylamino)methylene)indolin-2-one], the DC50 was less than 10 µM.

For the compound `O=C1Nc2ccc(Br)cc2/C1=C(/Nc1cncnc1)c1cccc(O)c1` [Example 69, (Z)-5-bromo-3-((3-hydroxyphenyl) (pyrimidin-5-ylamino)methylene)indolin-2-one], the DC50 is less than 10 µM.

For the compound `O=C1Nc2ccc(Br)cc2/C1=C(/Nc1cn[nH]c1)c1cccc(O)c1` [Example 70, (Z)-3-(((1H-pyrazol-4-yl)amino)(3-hydroxyphenyl)methylene)-5-bromoindolin-2-one], the DC50 is less than 10 µM.

As for `Cn1cc(N/C(=C2\C(=O)Nc3ccc(Br)cc32)c2cccc(O)c2)cn1` [Example 71, (Z)-5-bromo-3-((3-hydroxyphenyl)((1-methyl-1H-pyrazol-4-yl)amino)methylene)indolin-2-one], the DC50 was less than 10 µM.

Take `O=C1Nc2ccc(Br)cc2/C1=C(/Nc1cnccn1)c1cccc(O)c1` [Example 72, (Z)-5-bromo-3-((3-hydroxyphenyl) (pyrazin-2-ylamino)methylene)indolin-2-one]: the DC50 was less than 10 µM.

As for `O=C1Nc2ccc(Br)cc2/C1=C(/Nc1cccnn1)c1cccc(O)c1` [Example 73, (Z)-5-bromo-3-((3-hydroxyphenyl) (pyridazin-3-ylamino)methylene)indolin-2-one], the DC50 is less than 10 µM.

As for `O=C1Nc2ccc(Br)cc2/C1=C(/Nc1ccc(C(=O)O)cc1)c1cccc(O)c1` [Example 74, (Z)-4-(((5-bromo-2-oxoindolin-3-ylidene)(3-hydroxyphenyl)methyl)amino)benzoic acid], the DC50 lay in the range of 10 to 30 µM.

As for `N/C(=C1\C(=O)Nc2ccc(Br)cc21)c1cc(C(F)F)ccn1` [Example 75, (Z)-3-(amino(4-(difluoromethyl)pyridin-2-yl)methylene)-5-bromo indolin-2-one], the DC50 lay in the range of 10 to 30 µM.

As for `N/C(=C1\C(=O)Nc2ccc(Br)cc21)c1cc2ccccc2o1` [Example 76, (Z)-3-(amino (benzofuran-2-yl)methylene)-5-bromoindolin-2-one], the DC50 was less than 10 µM.

Turning to `N/C(=C1\C(=O)Nc2ccc(Br)cc21)c1ccncc1` [Example 77, (Z)-3-(amino (pyridin-4-yl)methylene)-5-bromoindolin-2-one], the DC50 was less than 10 µM.

`N/C(=C1\C(=O)Nc2ccc(Br)cc21)c1ncccn1` [Example 78, (Z)-3-(amino (pyrimidin-2-yl)methylene)-5-bromoindolin-2-one]: the DC50 is more than 30 µM.
